Values joined by “and” are separate entries in the source; they are usually repeats but may differ in a detail not shown here. Identical values can stand only once.
Molecular target: T1, HEDG-7 receptor (Homo sapiens, UniProt O95977, A140V/I378S)
T1 construct: it was desirable to isolate a full-length cDNA clone from a human source; expressed in transfected cells; host or cells: 293-EBNA cells (Invitrogen, Cat. R620-07), transiently transfected with pc3-hedg7#M10 (pcDNA3.1) and a 2x SRE-luciferase reporter
T1 sequence (O95977 1-384 A140V/I378S): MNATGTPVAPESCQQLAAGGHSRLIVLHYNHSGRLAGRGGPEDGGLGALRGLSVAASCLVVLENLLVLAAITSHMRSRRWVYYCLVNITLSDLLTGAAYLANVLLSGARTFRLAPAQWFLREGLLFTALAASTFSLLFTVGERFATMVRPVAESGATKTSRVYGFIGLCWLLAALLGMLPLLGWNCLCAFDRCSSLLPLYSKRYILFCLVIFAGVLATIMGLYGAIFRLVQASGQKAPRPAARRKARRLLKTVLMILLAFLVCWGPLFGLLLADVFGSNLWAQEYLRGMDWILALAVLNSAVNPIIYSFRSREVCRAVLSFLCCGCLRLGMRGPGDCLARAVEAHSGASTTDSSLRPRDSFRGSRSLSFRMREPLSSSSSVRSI
Assay: SRE-luciferase reporter gene response in 293-EBNA cells transfected with pc3-hedg7#M10
Type: cell-based
Settings: for SRE response (agonist specificity): 5 μM compound, serum-free medium; for SRE response (agonist specificity) / Rank (EMax) / EMax (Percent) / HEDG7 activation (conclusion from dose response): 293-EBNA cells transfected with pc3-hedg7#M10; for HEDG-7 agonist activity: summary statement in the description; for Max. Fold: maximal luciferase fold response after subtracting endogenous response in pcDNA3-transfected cells; for Max. Fold / EMax (Percent) / HEDG7 activation (conclusion from dose response): 6 hr treatment; for Rank (EMax): rank of efficacy among sphingolipids tested; for EMax (Percent): relative efficacy; for HEDG7 activation (conclusion from dose response): various concentrations
Method: Miniprep DNA from 4 clones was tested by cotransfection into 293-EBNA cells (Invitrogen, Cat. R620-07) with a 2× SRE-Luciferase reporter gene constructed in-house. We previously determined that these cells are an ideal expression host for edg receptors that respond to sphingolipids, since only a single edg gene is expressed (the LPA receptor subtype […], see U.S. Ser. No. 08/997,803), under normal culture conditions. […] Thus, the low endogenous expression of previously identified S1P receptor subtypes (edg-1, edg-3, edg-4/H218) and hedg7 (determined here) permits overexpression and functional analysis of these receptors in a relatively unresponsive cell background. From this preliminary cotransfection experiment, the expression clone pC3-hEdg7#M10 was chosen for further analysis. The nucleotide sequence and amino acid sequence of the hedg-7 sequence from the pC3-hEdg7#M10 clone are shown in FIG. 1B and FIG. 2B, respectively. Furthermore, an alignment of the hedg-7 amino acid sequence from the pC3-hEdg7#M10 clone and from the genomic DNA sequence is shown in FIG. 3B.
Transient transfection protocol for 293-EBNA:
1) 100 mm plates of 293-EBNA with a confluency of −80% were used for transfection.
2) SRE Reporter Gene Cotransfection: Expression plasmid ([…]) and reporter plasmid (2× SREtk-p4Luc-zeo; 0.5 μg) DNA samples were combined and diluted in 750 μl of DMEM/F12 (serum-free media) and 20 μl Plus Reagent (Lipofectamine Plus Kit, Life Technologies Cat. 10964-013), and incubated at room temperature for 15 min.
3) 30 μl Lipofectamine Reagent (Lipofectamine Plus Kit) was diluted in 750 μl DMEM/F12. The diluted Lipofectamine was then combined with the DNA/Plus mixture and incubated at RT for 15 min.
4) The 293-EBNA plates were washed once with PBS, and 5 ml DMEM/F12 was added to each plate.
5) DNA/Plus/Lipofectamine mixture was added to each plate of 293-EBNA cells. The plates were left for 3 hr at 37° C. in a 5% CO2 incubator.
6) The transfection medium was replaced with DMEM/F12 containing 10% FBS to recover overnight.
2) Transfected cells were harvested by trypsinization and 20,000 cells per well were plated in 96-well Blackview plates coated with poly D-lysine (Becton Dickinson Labware, Cat. 40640). Medium was DMEM/F12 plus 0.15% FBS. No. cells were plated in the outside wells of the 96-well plate. Cells were returned to the incubator for 48 hr.
1) Media was removed and cells treated with compounds diluted in serum-free DMEM/F12 media and the following treatments: a) Untreated: Serum-free DMEM/F12; b) 10 μM S1P in DMEM/F12 medium.
2) The cells were treated 5 hr in the 37° C. incubator.
3) Luclite kit (Packard; Cat. 6016911) was used for luciferase assay. All reagents were brought to room temperature before use.
4) Media was removed from each well. 50 μl 0.5M HEPES pH 7.8, 1 mM MgCl2, 1 mM CaCl2 was added to all wells of 96-well plate.
5) Luclite substrate was made up and 50 μl substrate was added to each well as specified in the kit.
6) Plates were incubated at room temperature for 30 min.
7) After incubation, plates were counted in a 12-detector Packard Top Count on a program without dark delay.
To determine the agonist specificity of HEDG-7, 293-EBNA cells were transfected with pc3-hedg7#M10, serum-deprived as described above, and treated in serum-free medium with 5 μM concentrations of SPC, S1P, LPA, lysophosphatiylcholine (LPC), edelfosine, psychosine, anandamide or 2-arachidonylglycerol. Control cells were treated with serum-free medium alone, and the SRE response was expressed as fold induction relative to this control. After 5 hr of treatment, luciferase activity was measured.
Transfection of a HEDG7 expression vector pc3-hedg7#M10 was carried out using Lipofectamine Plus (Life Technologies, Cat. 10964-013) according to manufacturer's instructions. The next day, transfected cells were harvested by trypsinization and replated at 30,000 cells per well in poly-(D)lysine-coated 96-well plates in medium containing 0.15% FBS. […]

Row | Molecule | SRE-Luciferase reporter response (10 μM S1P treatment, 5 hr, EBNA-293 cells transfected with pc3-hedg7#M10 and 2× SRE-Luciferase reporter, 2 independent experiments) | Max. Fold | EMax (Percent) | SRE response (agonist specificity) (5 hr) | HEDG-7 agonist activity | Rank (EMax) | HEDG7 activation (conclusion from dose response)
1 | lysophosphatidylcholine [LPC] | – | – | – | failed to activate the SRE response | – | – | –
2 | CCCCCCCCCCCCCCC[C@@H](O)[C@@H](N)COP(=O)(O)O [dihydro-S1P, dihydrosphingosine 1-phosphate] | – | – | – | – | do not act as HEDG-7 agonists | – | –
3 | CCCCCCCCCCCCC/C=C/[C@@H](O)[C@@H](N)COP(=O)([O-])OCC[N+](C)(C)C [SPC] | – | 3.59 Fold | 100% | robustly induced expression of the SRE reporter gene | agonists for HEDG-7 | 1 | full agonists
4 | CCCCC/C=C\C/C=C\C/C=C\C/C=C\CCCC(=O)NCCO [anadamide, anandamide] | – | – | – | – | do not act as HEDG-7 agonists | – | –

Second part, led by results:

Row | SRE-Luciferase reporter response (10 μM S1P treatment, 5 hr, EBNA-293 cells transfected with pc3-hedg7#M10 and 2× SRE-Luciferase reporter, 2 independent experiments) | Max. Fold | EMax (Percent) | Molecule | SRE response (agonist specificity) (5 hr) | HEDG-7 agonist activity | Rank (EMax) | HEDG7 activation (conclusion from dose response)
5 | 5.3 fold and 6.5 fold | 3.59 Fold | 100% | CCCCCCCCCCCCC/C=C/[C@@H](O)[C@@H](N)COP(=O)(O)O [S1P] | robustly induced expression of the SRE reporter gene | agonists for HEDG-7 | 1 | full agonists
6 | – | 1.00 Fold | 0% | CCCCCCCCCCCCC/C=C/[C@@H](O)C(N)CO[C@@H]1O[C@H](CO)[C@@H](O)[C@H](O)[C@@H]1O (stereo partly drawn) [Glucospychosine, glucopsychosine] | – | do not act as HEDG-7 agonists | – | failed to activate HEDG7 at nontoxic concentrations
7 | – | 1.00 Fold | 0% | CCCCCCCCCCCCC/C=C/[C@@H](O)[C@@H](N)CO[C@@H]1O[C@H](CO)[C@H](O)[C@H](O)[C@H]1O [Psychosine, psychosine] | – | do not act as HEDG-7 agonists | – | failed to activate HEDG7 at nontoxic concentrations

From patent publication US6566096B2, “Mammalian EDG-7 receptor homologs” (NPS Allelix Corp., priority 1997, dated 2003)
